PubChem BioAssay (NCI)
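Five concentrations, 48 hours, 96-well plates. The concentration for full growth arrest is given as TGI.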

What was measured:
Assay in all cases: NCI-60 cell line screen, 48 h
A498 renal = test system: A498 renal
A549 NSCLC = test system: A549 NSCLC
ACHN renal = test system: ACHN renal
BT-549 breast = test system: BT-549 breast
CCRF-CEM leukemia = test system: CCRF-CEM leukemia
COLO 205 colon = test system: COLO 205 colon
DU-145 prostate = test system: DU-145 prostate
EKVX NSCLC = test system: EKVX NSCLC
HCC-2998 colon = test system: HCC-2998 colon
HCT-116 colon = test system: HCT-116 colon
HCT-15 colon = test system: HCT-15 colon
HL-60(TB) leukemia = test system: HL-60(TB) leukemia
HOP-62 NSCLC = test system: HOP-62 NSCLC
HOP-92 NSCLC = test system: HOP-92 NSCLC
HS 578T breast = test system: HS 578T breast
IGROV1 ovarian = test system: IGROV1 ovarian
MDA-MB-231 breast = test system: MDA-MB-231 breast
MDA-N = test system: MDA-N
MOLT-4 leukemia = test system: MOLT-4 leukemia
NCI-H23 lung = test system: NCI-H23 lung
NCI-H460 lung = test system: NCI-H460 lung
NCI-H522 lung = test system: NCI-H522 lung
OVCAR-4 ovarian = test system: OVCAR-4 ovarian
OVCAR-5 ovarian = test system: OVCAR-5 ovarian
PC-3 prostate = test system: PC-3 prostate
RPMI-8226 leukemia = test system: RPMI-8226 leukemia
RXF 393 renal = test system: RXF 393 renal
SF-295 CNS = test system: SF-295 CNS
SF-539 CNS = test system: SF-539 CNS
SK-MEL-2 melanoma = test system: SK-MEL-2 melanoma
SK-MEL-28 melanoma = test system: SK-MEL-28 melanoma
SK-MEL-5 melanoma = test system: SK-MEL-5 melanoma
SK-OV-3 ovarian = test system: SK-OV-3 ovarian
SN12C renal = test system: SN12C renal
SW-620 colon = test system: SW-620 colon
T-47D breast = test system: T-47D breast
TK-10 renal = test system: TK-10 renal
786-0 renal = test system: 786-0 renal
CAKI-1 renal = test system: CAKI-1 renal
HT29 colon = test system: HT29 colon
K-562 leukemia = test system: K-562 leukemia
KM12 colon = test system: KM12 colon
LOX IMVI melanoma = test system: LOX IMVI melanoma
M14 melanoma = test system: M14 melanoma
MALME-3M melanoma = test system: MALME-3M melanoma
MCF7 breast = test system: MCF7 breast
MDA-MB-435 = test system: MDA-MB-435
NCI-H226 lung = test system: NCI-H226 lung
NCI/ADR-RES ovarian = test system: NCI/ADR-RES ovarian
OVCAR-3 ovarian = test system: OVCAR-3 ovarian
OVCAR-8 ovarian = test system: OVCAR-8 ovarian
SF-268 CNS = test system: SF-268 CNS
SNB-19 CNS = test system: SNB-19 CNS
SNB-75 CNS = test system: SNB-75 CNS
U251 CNS = test system: U251 CNS
UACC-257 melanoma = test system: UACC-257 melanoma
UACC-62 melanoma = test system: UACC-62 melanoma
UO-31 renal = test system: UO-31 renal

CO[C@H]1C[C@H](O[C@H]2CC[C@]3(C=O)[C@H]4CC[C@]5(C)[C@@H](C6=CC(=O)OC6)CC[C@]5(O)[C@@H]4CC[C@]3(O)C2)O[C@H](C)[C@H]1O[C@@H]1O[C@H](CO)[C@@H](O)[C@H](O)[C@H]1O
TGI (A498 renal): 0.198 nM | TGI (A549 NSCLC): 0.00983 nM | TGI (ACHN renal): 0.135 nM | TGI (BT-549 breast): 0.0472 nM | TGI (CCRF-CEM leukemia): 25 nM | TGI (COLO 205 colon): 0.867 nM | TGI (DU-145 prostate): 0.0166 nM | TGI (EKVX NSCLC): 0.0203 nM | TGI (HCC-2998 colon): 27.1 nM | TGI (HCT-116 colon): 0.035 nM | TGI (HCT-15 colon): 0.0831 nM | TGI (HL-60(TB) leukemia): 11 nM | TGI (HOP-62 NSCLC): 0.0425 nM | TGI (HOP-92 NSCLC): 0.141 nM | TGI (HS 578T breast): > 100000 nM | TGI (IGROV1 ovarian): 139 nM | TGI (MDA-MB-231 breast): 2.5 nM | TGI (MDA-N): 0.074 nM | TGI (MOLT-4 leukemia): 0.0132 nM | TGI (NCI-H23 lung): 0.0288 nM | TGI (NCI-H460 lung): 0.0771 nM | TGI (NCI-H522 lung): 0.0405 nM | TGI (OVCAR-4 ovarian): 0.0307 nM | TGI (OVCAR-5 ovarian): 0.0697 nM | TGI (PC-3 prostate): 0.955 nM | TGI (RPMI-8226 leukemia): 0.1 nM | TGI (RXF 393 renal): 0.154 nM | TGI (SF-295 CNS): 0.289 nM | TGI (SF-539 CNS): 0.0585 nM | TGI (SK-MEL-2 melanoma): 0.435 nM | TGI (SK-MEL-28 melanoma): 0.145 nM | TGI (SK-MEL-5 melanoma): 0.0972 nM | TGI (SK-OV-3 ovarian): 0.153 nM | TGI (SN12C renal): 0.0364 nM | TGI (SW-620 colon): 0.0747 nM | TGI (T-47D breast): 0.185 nM | TGI (TK-10 renal): 0.395 nM

O=C(SC1=NCCN1)c1cccc2ccccc12
TGI (786-0 renal): > 100000 nM | TGI (A498 renal): > 100000 nM | TGI (A549 NSCLC): > 100000 nM | TGI (ACHN renal): > 100000 nM | TGI (BT-549 breast): > 100000 nM | TGI (CAKI-1 renal): > 100000 nM | TGI (CCRF-CEM leukemia): 70100 nM | TGI (COLO 205 colon): > 100000 nM | TGI (DU-145 prostate): > 100000 nM | TGI (EKVX NSCLC): > 100000 nM | TGI (HCC-2998 colon): > 100000 nM | TGI (HCT-116 colon): > 100000 nM | TGI (HCT-15 colon): > 100000 nM | TGI (HL-60(TB) leukemia): 67000 nM | TGI (HOP-62 NSCLC): > 100000 nM | TGI (HOP-92 NSCLC): > 100000 nM | TGI (HS 578T breast): > 100000 nM | TGI (HT29 colon): > 100000 nM | TGI (IGROV1 ovarian): > 100000 nM | TGI (K-562 leukemia): 73500 nM | TGI (KM12 colon): > 100000 nM | TGI (LOX IMVI melanoma): > 100000 nM | TGI (M14 melanoma): > 100000 nM | TGI (MALME-3M melanoma): > 100000 nM | TGI (MCF7 breast): > 100000 nM | TGI (MDA-MB-231 breast): > 100000 nM | TGI (MDA-MB-435): > 100000 nM | TGI (MDA-N): > 100000 nM | TGI (MOLT-4 leukemia): 43200 nM | TGI (NCI-H226 lung): > 100000 nM | TGI (NCI-H23 lung): > 100000 nM | TGI (NCI-H460 lung): > 100000 nM | TGI (NCI-H522 lung): 74900 nM | TGI (NCI/ADR-RES ovarian): > 100000 nM | TGI (OVCAR-3 ovarian): > 100000 nM | TGI (OVCAR-4 ovarian): > 100000 nM | TGI (OVCAR-5 ovarian): > 100000 nM | TGI (OVCAR-8 ovarian): > 100000 nM | TGI (PC-3 prostate): > 100000 nM | TGI (RPMI-8226 leukemia): 94600 nM | TGI (RXF 393 renal): > 100000 nM | TGI (SF-268 CNS): > 100000 nM | TGI (SF-295 CNS): > 100000 nM | TGI (SF-539 CNS): > 100000 nM | TGI (SK-MEL-2 melanoma): > 100000 nM | TGI (SK-MEL-28 melanoma): > 100000 nM | TGI (SK-MEL-5 melanoma): > 100000 nM | TGI (SK-OV-3 ovarian): > 100000 nM | TGI (SN12C renal): > 100000 nM | TGI (SNB-19 CNS): > 100000 nM | TGI (SNB-75 CNS): 96800 nM | TGI (SW-620 colon): > 100000 nM | TGI (T-47D breast): > 100000 nM | TGI (TK-10 renal): > 100000 nM | TGI (U251 CNS): > 100000 nM | TGI (UACC-257 melanoma): 95900 nM | TGI (UACC-62 melanoma): > 100000 nM | TGI (UO-31 renal): > 100000 nM
